Results from publication PMC11289669, “BAR502/fibrate conjugates: synthesis, biological evaluation and metabolic profile” (Frontiers in Chemistry, 2024).
Where “and” joins values, the source holds several entries; their conditions need not be identical. Equal entries are not always repeated. Entries after “also recorded” stand apart in the source; their conditions may differ.

Key:
[1] = system: 3T3-L1 cells; assay: 3T3-L1 preadipocyte differentiation, adipogenic marker gene expression (qRT-PCR); format: cell-based, murine; conditions: differentiation medium (DIM), 7 days, 10 µM
Experimental: The 3T3-L1 cells were cultured in Dulbecco’s modified Eagle’s medium (DMEM; Euroclone), supplemented with 10% fetal bovine serum, 1% l-glutamine, 100 U/mL penicillin, and 100 μg/mL streptomycin, at 37 °C. Preadipocytes of 3T3-L1 cells were plated at 1.7 × 10^6 cells in T75 flasks, and grown to confluence. Two days after reaching confluence (day 0), the cells were stimulated with differentiation medium (DIM), either alone (DMEM, 10% FBS, 500 μM 3-isobutyl-1-methylxanthine, 1 μM dexamethasone, […]), or in combination with BAR502 and clofibrate at the concentration of 5 µM or with compound 1 (10 µM). On day 3, the DIM was replaced by insulin medium (DMEM, 10% fetal bovine serum, […]) alone or with the compounds. On day 7 cells were recovered.
Total mRNA extraction from U937 and 3T3.L1 was performed using Tri-Reagent (Zymo Research) and Direct-zol™ RNA MiniPrep w/Zymo-Spin™ IIC Columns (Zymo Research, Irvine, CA). […] The relative mRNA expression was calculated accordingly to the ΔCt method. […]

[2] = Chemical stability in HCl buffer, PBS buffer and culture medium by LC-MS; format: physicochemical; conditions: 10 μM
Experimental: (§1) Chemical stability in HCl Buffer, PBS buffer and culture medium (EMEM) was evaluated by LC-MS dissolving compound 1 at 10 μM (final concertation) in cited buffers and injecting aliquots removed from incubations at different time points. Microsomal stability was evaluated employing 50 mM potassium phosphate buffer (pH 7.4) containing 0.15 mg of Human liver microsomes (Sigma-Aldrich, St. Louis, MO, United States) 5 mM MgCl2, 1 mM NADPH, 5 mM glucose 6-phosphate, 0.4 U·mL^−1 glucose 6-phosphate dehydrogenase. Compounds were tested at 1 µM final concentration. Aliquots, removed at different time points, were diluted with ice-cold acetonitrile and analyzed by LC-MS.

[3] = Microsomal stability in human liver microsomes; format: in vitro ADME; conditions: pH 7.4, 1 µM
Experimental: as §1

[4] = Stability in cryopreserved pooled human hepatocytes; format: in vitro ADME; conditions: cryopreserved pooled human hepatocytes (HEP10), read-out: t1/2 in cryopreserved hepatocytes
Experimental: Cryopreserved HEP10 Pooled Human Hepatocytes were thawed in 37°C water bath for 2 min and then transferred into CHRM® Medium. After centrifugation at room temperature cells were resuspended in pre-warmed Incubation Medium and diluted to correct seeding density (5 × 10^5 cells/mL).

[5] = In cell permeation and metabolism in HepG2 cells (LC-MSMS); format: in vitro ADME, human; conditions: 0–480 min
Experimental: HepG2 cells were treated with compound 1, BAR502 or clofibrate. At different time points (0–480 min) culture mediums and cells pellets were collected, extracted by adding ice-cold acetonitrile and analyzed by LC-MSMS.

[6] = Plasma profile / metabolite quantization in mice (LC-MS MRM); format: in vivo
[7] = biological target: T1, PPARα (Homo sapiens, UniProt Q07869); assay: AlphaScreen coactivator (SRC-1) recruitment assay on PPARα; format: biochemical; conditions: AlphaScreen SRC-1 recruitment; compounds at 50 µM (footnote); fenofibrate = 100%
T1 construct: 20 nM PPARα LBD GST fused (Thermo Scientific); purchased Thermo Scientific
T1 sequence (Q07869 239-466 limits assumed): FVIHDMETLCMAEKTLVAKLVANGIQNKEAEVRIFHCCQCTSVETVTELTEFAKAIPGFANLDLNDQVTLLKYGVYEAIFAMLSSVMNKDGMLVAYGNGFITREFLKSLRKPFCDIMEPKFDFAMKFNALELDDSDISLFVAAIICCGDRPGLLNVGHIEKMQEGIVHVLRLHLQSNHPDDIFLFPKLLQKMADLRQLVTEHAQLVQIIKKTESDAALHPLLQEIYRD
Experimental: Compounds’ ability to mediate cofactor recruitment was evaluated by employing AlphaScreen GST Detection Kit (PerkinElmer). Particularly, FXR agonism was evaluated employing 10 nM FXR-LBD GST-fused (Thermo Scientific) and 30 nM of biotinylated SRC1 peptide ([…]) in the presence of 20 μg/mL donor and acceptor beads and in buffer containing 50 mM Tris-HCl (pH7.4), 20 mM KCl, 1 mM DTT, and 0.1% BSA. For PPARα assay, a buffer containing 50 mM MOPS, 50 mM NaF, 0.05 mM CHAPS, and 0.05% BSA (pH = 7.4) was used, and 20 nM PPARα LBD GST fused (Thermo Scientific) and 60 nM of biotinylated SRC1 peptide were employed. Both acceptor and donor beads were added to reach 20 μg/mL final concentration. Incubations were performed in a final volume of 25 μL employing 384 wells Optiplate and Alpha signal was measured with Envision 2,105 (Perkin Elmer) multimode plate reader. […]

| Compound | Expression of markers of adipocyte differentiation (Adiponectin, Pparγ, Cebp) [1] | Chemical stability in HCl buffer ([2]; HCl buffer, 2h) | Chemical stability in PBS buffer ([2]; PBS buffer pH 7.4, 8 h) | Chemical stability in culture medium ([2]; culture medium (EMEM), 8 h) | microsomal CLint at 1 µM [3] | half-life at 1 µM ([3]; read-out: t1/2 in human microsomes) | half-life [4] | Cell permeation (amount in cell pellets) compared to BAR502 [5] | Hydrolysis to clofibric acid in cells compared with clofibrate [5] | Plasma level of oxidized metabolite BAR505 ([6]; mice treated with compound 1, 30 mg/kg) | Plasma clofibric acid released, compared with that from clofibrate ([6]; mice, 30 mg/kg) | Unmodified compound in plasma ([6]; mice, 30 mg/kg, 0-8 h) | PPARα efficacy (% vs. fenofibrate) [7] |
| --- | --- | --- | --- | --- | --- | --- | --- | --- | --- | --- | --- | --- | --- |
| CC[C@@H]1C2C[C@H](O)CC[C@]2(C)C2CC[C@@]3(C)C(CC[C@@H]3[C@H](C)CCOC(=O)C(C)(C)Oc3ccc(Cl)cc3)C2[C@@H]1O (stereo partly shown) [Compound 1] | reduction in the expression of all markers of adipocyte differentiation | stable | stable | stable | 87 µL/min/mg | 0.45 h | 2.02 h | higher cell permeation | hydrolyzed more slowly | highly abundant species | superimposable | not detected; also recorded: not found | – |
| CC[C@H]1[C@@H](O)[C@@H]2[C@H](CC[C@]3(C)[C@@H]([C@H](C)CCO)CC[C@@H]23)[C@@]2(C)CC[C@@H](O)C[C@@H]12 [BAR502, 6α-ethyl-3α,7α-dihydroxy-24-nor-5β-cholan-23-ol] | – | – | – | – | – | – | – | – | – | – | – | – | 36% and 36 ± 12% |
